Measurements reported in patent US6486195B1, “Thermodynamically stable crystal form of 4″-deoxy-4″-epi-methylamino avermectin B1a/B1b benzoic acid salt and processes for its preparation” (Merck & Co., Inc., priority 1993, dated 2002).

Key:
[1] = hygroscopicity of the crystal forms; format: physicochemical; conditions: compared with the other crystal forms (A, C, D)
[2] = thermodynamic stability of the crystalline forms; format: physicochemical; conditions: among the four crystalline forms A, B, C and D

4″-deoxy-4″-epi-methylamino avermectin B1a/B1b, benzoic acid salt, hemihydrate [Type B]
hygroscopicity [1]: significantly less hygroscopic | thermodynamic stability of crystalline form [2]: most thermodynamically stable
